According to ChEMBL document CHEMBL4800722, “Data for DCP probe BI 605906” (2021):
The source made the active and inactive calls. No cut-off for these calls is given here.

Key:
[1] = biological target: Receptor tyrosine-protein kinase erbB-2 (Homo sapiens) (UniProt P04626)
[2] = biological target: Serine/threonine-protein kinase MRCK gamma (Homo sapiens) (UniProt Q6DT37); assay: CDC42 BPG (MRCKG) Invitrogen Lab (UK) kinase screen (BI); details: Compound concentration 1.0 uM
[3] = biological target: Phospholipase A2 (Sus scrofa) (UniProt A0A8D1VEY7); details: Compound concentration 10.0 uM
[4] = biological target: T1, D(4) dopamine receptor (Homo sapiens) (UniProt P21917); details: Compound concentration 10.0 uM
T1 sequence (whole entry): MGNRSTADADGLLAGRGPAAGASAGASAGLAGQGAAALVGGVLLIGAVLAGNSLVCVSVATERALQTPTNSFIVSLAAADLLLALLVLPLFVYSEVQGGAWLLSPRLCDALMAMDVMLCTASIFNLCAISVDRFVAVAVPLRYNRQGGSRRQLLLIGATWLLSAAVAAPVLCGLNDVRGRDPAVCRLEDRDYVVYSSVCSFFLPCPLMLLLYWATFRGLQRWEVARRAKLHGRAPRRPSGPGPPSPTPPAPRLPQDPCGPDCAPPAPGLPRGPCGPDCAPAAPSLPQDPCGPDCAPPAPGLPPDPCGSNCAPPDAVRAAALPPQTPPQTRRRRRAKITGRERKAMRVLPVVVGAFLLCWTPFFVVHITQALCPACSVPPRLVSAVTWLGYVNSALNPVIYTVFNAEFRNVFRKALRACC

[5] = biological target: Protein kinase C gamma type (Homo sapiens) (UniProt P05129); assay: PRKCG Invitrogen Lab (UK) kinase screen (BI); details: Compound concentration 1.0 uM
[6] = biological target: Serine/threonine-protein kinase PAK 4 (Homo sapiens) (UniProt O96013)
[7] = biological target: Serine/threonine-protein kinase NLK (Homo sapiens) (UniProt Q9UBE8); details: Compound concentration 1.0 uM
[8] = biological target: Ribosomal protein S6 kinase alpha-4 (Homo sapiens) (UniProt O75676); details: Compound concentration 1.0 uM
[9] = biological target: Mitogen-activated protein kinase kinase kinase 19 (Homo sapiens) (UniProt Q56UN5); details: Compound concentration 1.0 uM
[10] = biological target: Phosphorylase b kinase gamma catalytic chain, testis/liver isoform (Homo sapiens) (UniProt P15735)
[11] = biological target: Cyclin-dependent kinase-like 5 (Homo sapiens) (UniProt O76039); assay: CDKL5 Invitrogen Lab (UK) kinase screen (BI); details: Compound concentration 1.0 uM
[12] = biological target: Alpha-2C adrenergic receptor (Homo sapiens) (UniProt P18825); details: Compound concentration 10.0 uM
[13] = biological target: 5-hydroxytryptamine receptor 2A (Homo sapiens) (UniProt P28223); details: Compound concentration 10.0 uM
[14] = biological target: cAMP-dependent protein kinase (PKA) (Homo sapiens) (UniProt P22694+P17612+P22612); assay: PKA(REC) DUNDEE kinase screen (BI); format: protein assay; details: Compound concentration 10.0 uM
[15] = biological target: Inhibitor of nuclear factor kappa-B kinase subunit beta (Homo sapiens, UniProt O14920); assay: Biochemical assay
[16] = biological target: Interleukin-1 receptor-associated kinase 4 (Homo sapiens) (UniProt Q9NWZ3)
[17] = biological target: Ribosomal protein S6 kinase alpha-2 (Homo sapiens) (UniProt Q15349); details: Compound concentration 1.0 uM
[18] = biological target: Serine/threonine-protein kinase Nek8 (Homo sapiens) (UniProt Q86SG6); details: Compound concentration 1.0 uM
[19] = biological target: Homeodomain-interacting protein kinase 2 (Homo sapiens) (UniProt Q9H2X6); assay: HIPK2 Invitrogen Lab (UK) kinase screen (BI); details: Compound concentration 1.0 uM
[20] = biological target: Ribosomal protein S6 kinase alpha-1 (Homo sapiens) (UniProt Q15418); details: Compound concentration 1.0 uM
[21] = biological target: GABA-A receptor; anion channel (Rattus norvegicus) (UniProt O09028+P15431+P18506+P18508+P19969+P20236+P23574+P23576+P28471+P28473+P30191+P62813+P63079+P63138+Q91ZM7+Q9ES14); details: Compound concentration 10.0 uM
[22] = biological target: STE20-like serine/threonine-protein kinase (Homo sapiens) (UniProt Q9H2G2); details: Compound concentration 1.0 uM
[23] = biological target: Activin receptor type-1B (Homo sapiens) (UniProt P36896)
[24] = biological target: Interstitial collagenase (Homo sapiens) (UniProt P03956); details: Compound concentration 10.0 uM
[25] = biological target: Death-associated protein kinase 2 (Homo sapiens) (UniProt Q9UIK4); assay: DAPK2 Invitrogen Lab (UK) kinase screen (BI); details: Compound concentration 1.0 uM
Renin (Homo sapiens) = Renin (Homo sapiens) (UniProt P00797); details: Compound concentration 10.0 uM
[26] = biological target: Dual specificity protein kinase CLK2 (Homo sapiens) (UniProt P49760); details: Compound concentration 1.0 uM
[27] = biological target: Serine/threonine-protein kinase PAK 1 (Homo sapiens) (UniProt Q13153); details: Compound concentration 1.0 uM
[28] = biological target: AMP-activated protein kinase (AMPK) alpha-1/beta-1/gamma-1 (Homo sapiens) (UniProt P54619+Q9Y478+Q13131)
[29] = biological target: Phosphatidylinositol 4-phosphate 5-kinase type-1 alpha (Homo sapiens) (UniProt Q99755); assay: PIP5K1A Invitrogen Lab (UK) kinase screen (BI); details: Compound concentration 1.0 uM
[30] = biological target: BDNF/NT-3 growth factors receptor (Homo sapiens) (UniProt Q16620); details: Compound concentration 1.0 uM
[31] = biological target: Bone morphogenetic protein receptor type-2 (Homo sapiens) (UniProt Q13873); assay: BMPR2 Invitrogen Lab (UK) kinase screen (BI); details: Compound concentration 1.0 uM
[32] = biological target: TGF-beta receptor type-2 (Homo sapiens) (UniProt P37173); details: Compound concentration 1.0 uM
[33] = biological target: Natriuretic peptides A (Cavia porcellus) (UniProt P27596); details: Compound concentration 100.0 uM
[34] = biological target: Aurora kinase C (Homo sapiens) (UniProt Q9UQB9); details: Compound concentration 1.0 uM
[35] = biological target: 5-hydroxytryptamine receptor 7 (Homo sapiens) (UniProt P34969); details: Compound concentration 10.0 uM

Sequence of Interleukin-1 receptor-associated kinase 4 (Homo sapiens) (Q9NWZ3 whole entry): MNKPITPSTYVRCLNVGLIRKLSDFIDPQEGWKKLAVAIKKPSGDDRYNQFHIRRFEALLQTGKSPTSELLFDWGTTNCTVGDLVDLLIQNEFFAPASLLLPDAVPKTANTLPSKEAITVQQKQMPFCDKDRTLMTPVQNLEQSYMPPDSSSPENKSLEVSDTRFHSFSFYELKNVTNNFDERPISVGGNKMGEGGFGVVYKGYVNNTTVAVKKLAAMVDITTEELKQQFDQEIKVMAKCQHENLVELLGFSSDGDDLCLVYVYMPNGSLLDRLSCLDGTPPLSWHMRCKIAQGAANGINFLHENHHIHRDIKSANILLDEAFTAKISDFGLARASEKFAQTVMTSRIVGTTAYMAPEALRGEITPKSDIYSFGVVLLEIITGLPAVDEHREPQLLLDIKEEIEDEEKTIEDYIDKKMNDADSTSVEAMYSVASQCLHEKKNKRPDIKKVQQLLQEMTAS
Sequence of Serine/threonine-protein kinase PAK 4 (Homo sapiens) (O96013 whole entry, looked up): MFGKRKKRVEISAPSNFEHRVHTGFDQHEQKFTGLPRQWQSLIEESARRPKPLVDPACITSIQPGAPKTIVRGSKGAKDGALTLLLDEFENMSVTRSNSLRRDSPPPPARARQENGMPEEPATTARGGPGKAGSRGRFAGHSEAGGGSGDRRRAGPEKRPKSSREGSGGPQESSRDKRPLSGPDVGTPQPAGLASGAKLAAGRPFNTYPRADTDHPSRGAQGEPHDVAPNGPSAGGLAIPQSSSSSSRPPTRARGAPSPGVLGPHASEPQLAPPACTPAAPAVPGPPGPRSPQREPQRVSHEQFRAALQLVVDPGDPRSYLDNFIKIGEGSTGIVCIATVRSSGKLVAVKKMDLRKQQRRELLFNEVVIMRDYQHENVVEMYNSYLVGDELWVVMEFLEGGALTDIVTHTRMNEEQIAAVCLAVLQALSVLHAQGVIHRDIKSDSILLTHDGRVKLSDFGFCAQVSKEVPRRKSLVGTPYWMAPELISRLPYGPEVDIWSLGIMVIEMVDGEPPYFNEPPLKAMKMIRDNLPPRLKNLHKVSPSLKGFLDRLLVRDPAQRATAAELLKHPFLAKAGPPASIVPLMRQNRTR
Sequence of Activin receptor type-1B (Homo sapiens) (P36896 whole entry): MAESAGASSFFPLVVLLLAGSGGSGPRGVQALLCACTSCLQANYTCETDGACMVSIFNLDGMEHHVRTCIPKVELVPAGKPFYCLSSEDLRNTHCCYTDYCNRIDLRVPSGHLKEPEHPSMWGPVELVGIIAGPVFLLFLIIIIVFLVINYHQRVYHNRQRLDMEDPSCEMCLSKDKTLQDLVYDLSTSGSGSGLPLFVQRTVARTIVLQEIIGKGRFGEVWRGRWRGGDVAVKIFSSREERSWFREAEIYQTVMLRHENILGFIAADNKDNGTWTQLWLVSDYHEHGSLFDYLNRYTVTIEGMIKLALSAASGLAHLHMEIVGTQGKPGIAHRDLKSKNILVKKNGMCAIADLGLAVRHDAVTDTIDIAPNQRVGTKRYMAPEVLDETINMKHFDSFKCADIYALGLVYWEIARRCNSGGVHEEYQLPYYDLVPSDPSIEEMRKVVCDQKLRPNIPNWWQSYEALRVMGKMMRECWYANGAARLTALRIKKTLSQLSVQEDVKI
Sequence of AMP-activated protein kinase (AMPK) alpha-1/beta-1/gamma-1 (Homo sapiens) (P54619 whole entry): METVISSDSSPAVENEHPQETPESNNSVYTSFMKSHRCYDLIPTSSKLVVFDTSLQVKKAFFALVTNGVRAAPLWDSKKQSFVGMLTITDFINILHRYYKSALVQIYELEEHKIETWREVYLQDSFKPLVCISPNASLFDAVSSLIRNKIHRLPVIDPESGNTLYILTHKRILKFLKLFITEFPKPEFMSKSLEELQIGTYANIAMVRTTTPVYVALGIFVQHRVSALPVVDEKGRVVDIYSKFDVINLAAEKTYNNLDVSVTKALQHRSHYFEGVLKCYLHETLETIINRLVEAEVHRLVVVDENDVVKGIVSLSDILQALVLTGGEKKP
Sequence of AMP-activated protein kinase (AMPK) alpha-1/beta-1/gamma-1 (Homo sapiens) (Q13131 whole entry partner): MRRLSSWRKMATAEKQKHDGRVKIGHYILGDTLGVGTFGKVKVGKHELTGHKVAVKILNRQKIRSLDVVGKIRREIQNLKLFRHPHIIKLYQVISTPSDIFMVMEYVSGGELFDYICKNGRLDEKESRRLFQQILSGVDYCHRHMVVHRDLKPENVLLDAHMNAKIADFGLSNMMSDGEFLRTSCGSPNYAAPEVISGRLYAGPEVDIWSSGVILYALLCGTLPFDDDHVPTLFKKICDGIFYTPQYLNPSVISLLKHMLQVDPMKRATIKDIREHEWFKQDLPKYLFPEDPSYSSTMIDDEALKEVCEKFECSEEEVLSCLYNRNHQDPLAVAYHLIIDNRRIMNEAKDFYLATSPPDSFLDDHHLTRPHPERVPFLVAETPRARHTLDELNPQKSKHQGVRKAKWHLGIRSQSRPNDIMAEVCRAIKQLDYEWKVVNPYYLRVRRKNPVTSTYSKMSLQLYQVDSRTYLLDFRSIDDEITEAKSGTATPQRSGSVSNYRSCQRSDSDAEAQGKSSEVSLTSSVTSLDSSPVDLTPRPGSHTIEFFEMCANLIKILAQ
Sequence of AMP-activated protein kinase (AMPK) alpha-1/beta-1/gamma-1 (Homo sapiens) (Q9Y478 2-270 partner limits assumed): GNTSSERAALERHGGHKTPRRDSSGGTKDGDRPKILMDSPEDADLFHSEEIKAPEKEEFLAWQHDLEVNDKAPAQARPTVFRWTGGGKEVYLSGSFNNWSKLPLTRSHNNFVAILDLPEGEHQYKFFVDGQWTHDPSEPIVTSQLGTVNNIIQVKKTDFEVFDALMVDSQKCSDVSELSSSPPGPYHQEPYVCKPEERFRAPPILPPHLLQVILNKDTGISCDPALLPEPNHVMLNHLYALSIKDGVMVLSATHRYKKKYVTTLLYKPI
Sequence of Phosphorylase b kinase gamma catalytic chain, testis/liver isoform (Homo sapiens) (P15735 whole entry, looked up, canonical isoform): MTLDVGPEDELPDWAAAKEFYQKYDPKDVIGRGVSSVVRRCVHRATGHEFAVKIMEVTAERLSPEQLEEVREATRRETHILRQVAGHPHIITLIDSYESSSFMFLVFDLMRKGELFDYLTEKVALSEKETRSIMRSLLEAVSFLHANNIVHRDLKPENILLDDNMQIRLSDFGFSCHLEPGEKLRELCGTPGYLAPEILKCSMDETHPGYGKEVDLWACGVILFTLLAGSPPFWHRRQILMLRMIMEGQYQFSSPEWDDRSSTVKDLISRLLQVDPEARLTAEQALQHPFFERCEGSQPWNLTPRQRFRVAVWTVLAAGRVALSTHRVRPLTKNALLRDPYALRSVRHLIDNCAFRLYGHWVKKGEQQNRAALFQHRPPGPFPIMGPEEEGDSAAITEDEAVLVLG
Sequence of Receptor tyrosine-protein kinase erbB-2 (Homo sapiens) (P04626 whole entry): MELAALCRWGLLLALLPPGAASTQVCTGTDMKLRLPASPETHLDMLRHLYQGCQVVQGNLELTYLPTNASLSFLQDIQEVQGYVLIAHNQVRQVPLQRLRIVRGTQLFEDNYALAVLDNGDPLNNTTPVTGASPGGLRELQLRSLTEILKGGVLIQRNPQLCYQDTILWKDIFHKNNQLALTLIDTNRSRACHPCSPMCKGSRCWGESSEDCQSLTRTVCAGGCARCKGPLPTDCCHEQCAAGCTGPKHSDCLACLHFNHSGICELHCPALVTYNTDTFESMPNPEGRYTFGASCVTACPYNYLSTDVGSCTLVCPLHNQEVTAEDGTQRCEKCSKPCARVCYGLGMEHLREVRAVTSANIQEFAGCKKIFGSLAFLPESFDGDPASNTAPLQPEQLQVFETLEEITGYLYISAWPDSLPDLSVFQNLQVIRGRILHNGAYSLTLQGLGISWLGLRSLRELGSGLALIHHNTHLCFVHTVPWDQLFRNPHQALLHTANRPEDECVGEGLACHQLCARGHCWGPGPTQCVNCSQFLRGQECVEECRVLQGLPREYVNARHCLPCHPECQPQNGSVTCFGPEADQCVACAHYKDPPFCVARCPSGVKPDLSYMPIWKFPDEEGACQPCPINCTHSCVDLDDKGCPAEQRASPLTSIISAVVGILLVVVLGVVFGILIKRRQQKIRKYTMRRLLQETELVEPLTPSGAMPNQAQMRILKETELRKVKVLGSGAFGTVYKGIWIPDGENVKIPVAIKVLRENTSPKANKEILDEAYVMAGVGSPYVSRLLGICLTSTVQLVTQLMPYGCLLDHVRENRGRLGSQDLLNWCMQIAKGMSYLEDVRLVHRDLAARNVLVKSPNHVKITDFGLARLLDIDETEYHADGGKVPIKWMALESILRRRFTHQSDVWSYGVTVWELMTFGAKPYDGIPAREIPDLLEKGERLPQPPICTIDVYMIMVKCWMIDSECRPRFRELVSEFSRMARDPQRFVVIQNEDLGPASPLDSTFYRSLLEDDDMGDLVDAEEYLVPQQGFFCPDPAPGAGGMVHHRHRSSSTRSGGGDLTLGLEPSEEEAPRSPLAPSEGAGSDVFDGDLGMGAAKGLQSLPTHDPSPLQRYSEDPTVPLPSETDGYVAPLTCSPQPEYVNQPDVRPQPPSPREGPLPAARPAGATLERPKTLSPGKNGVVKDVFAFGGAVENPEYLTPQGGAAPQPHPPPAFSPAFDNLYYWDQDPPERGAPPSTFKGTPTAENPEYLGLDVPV
Sequence of TGF-beta receptor type-2 (Homo sapiens) (P37173 whole entry): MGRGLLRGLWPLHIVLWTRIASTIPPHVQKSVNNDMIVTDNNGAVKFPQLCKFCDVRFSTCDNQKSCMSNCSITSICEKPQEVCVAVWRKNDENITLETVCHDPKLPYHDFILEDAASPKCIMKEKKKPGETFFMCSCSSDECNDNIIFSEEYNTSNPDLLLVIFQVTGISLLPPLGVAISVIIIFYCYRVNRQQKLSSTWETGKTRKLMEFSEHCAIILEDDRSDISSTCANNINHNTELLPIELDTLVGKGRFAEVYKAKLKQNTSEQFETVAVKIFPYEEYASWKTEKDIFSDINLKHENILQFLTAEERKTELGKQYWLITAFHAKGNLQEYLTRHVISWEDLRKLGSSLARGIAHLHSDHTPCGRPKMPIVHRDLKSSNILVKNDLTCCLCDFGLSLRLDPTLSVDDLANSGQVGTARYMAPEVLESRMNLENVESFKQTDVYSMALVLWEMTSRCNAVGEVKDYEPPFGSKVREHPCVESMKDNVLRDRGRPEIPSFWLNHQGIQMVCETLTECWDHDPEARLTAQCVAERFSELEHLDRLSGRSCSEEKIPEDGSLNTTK

Compound: CCC(F)(F)c1cc(N2CCC(S(C)(=O)=O)CC2)nc2sc(C(N)=O)c(N)c12 [BI-605906]
- residual activity ([1]; Compound concentration 1.0 uM): 96%
- residual activity ([1]; Compound concentration 10.0 uM): 86%
- residual activity [2]: 111%
- residual activity [3]: 96%
- inhibition [4]: 44.6%
- residual activity [5]: 102%
- residual activity ([6]; Compound concentration 1.0 uM): 95%
- residual activity ([6]; Compound concentration 10.0 uM): 80%
- residual activity [7]: 93%
- residual activity [8]: 96%
- residual activity [9]: 98%
- residual activity ([10]; Compound concentration 1.0 uM): 99%
- residual activity ([10]; Compound concentration 10.0 uM): 97%
- residual activity [11]: 103%
- inhibition [12]: 13.7%
- inhibition [13]: 6.1%
- residual activity [14]: 61.7%
- IC50 [15]: 49 nM (active)
- residual activity ([16]; Compound concentration 1.0 uM): 100%
- residual activity ([16]; Compound concentration 10.0 uM): 90%
- residual activity [17]: 96%
- residual activity [18]: 95%
- residual activity [19]: 81%
- residual activity [20]: 94%
- inhibition [21]: 32.6%
- residual activity [22]: 99%
- residual activity ([23]; Compound concentration 1.0 uM): 96%
- residual activity ([23]; Compound concentration 10.0 uM): 105%
- residual activity [24]: 94%
- residual activity [25]: 79%
- residual activity (Renin (Homo sapiens)): 100%
- residual activity [26]: 91%
- residual activity [27]: 98%
- residual activity ([28]; Compound concentration 1.0 uM): 95%
- residual activity ([28]; Compound concentration 10.0 uM): 80%
- residual activity [29]: 83%
- residual activity [30]: 95%
- residual activity [31]: 65%
- residual activity [32]: 87%
- residual activity [33]: 100%
- residual activity [34]: 95%
- inhibition [35]: 13.7%
